Source: DBAASP
≈ marks a conversion by molar mass, not a printed value.

How the values were obtained:
Assay in all cases: ≥ marks a high value that may be exact or a test limit, other limits are often not marked, values filed in µg/mL are converted to µM
[1] = test system: Staphylococcus aureus USA 300
Escherichia coli BL21 = test system: Escherichia coli BL21
[2] = test system: Streptococcus pyogenes M1T1 5448
[3] = test system: Pseudomonas aeruginosa PAO1
[4] = test system: Enterococcus faecium ATCC 700221
[5] = test system: Pseudomonas aeruginosa ATCC 27853
[6] = test system: Staphylococcus aureus ATCC 33591
[7] = test system: Escherichia coli ATCC 25922
Escherichia coli JW0013 = test system: Escherichia coli JW0013
[8] = test system: Staphylococcus aureus ATCC 25923
[9] = test system: Listeria monocytogenes EGD
[10] = test system: Acinetobacter baumannii ATCC 7978
[11] = test system: Klebsiella pneumoniae WGLW2
[12] = test system: Staphylococcus aureus ATCC 29231
[13] = test system: Klebsiella aerogenes ATCC 13048
[14] = test system: Candida albicans ATCC 10231

## CC[C@H](C)[C@H](NC(=O)[C@H](CCCCN)NC(=O)[C@H](CCCCN)NC(=O)CNC(=O)[C@H](CCC(=O)O)NC(=O)[C@H](CCC(N)=O)NC(=O)[C@@H](NC(=O)[C@@H](NC(=O)[C@H](CCCCN)NC(=O)[C@H](CCCCN)NC(=O)[C@H](CC(C)C)NC(=O)[C@H](CCCN=C(N)N)NC(=O)[C@H](CCC(N)=O)NC(=O)[C@H](Cc1ccccc1)NC(=O)[C@@H](NC(=O)[C@H](CCCCN)NC(=O)[C@H](CCC(=O)O)NC(=O)[C@H](CCCCN)NC(=O)CNC(=O)[C@H](C)N)[C@@H](C)CC)[C@@H](C)O)[C@@H](C)CC)C(=O)N[C@@H](C)C(=O)N[C@@H](CCCCN)C(=O)N[C@@H](CCCN=C(N)N)C(=O)N[C@@H](C)C(=O)N[C@@H](Cc1c[nH]c2ccccc12)C(=O)O [AGKEKIFQRLKKTIQEGKKIAKRAW]
[1]
  MIC: 4 µM (≈ 11.8 µg/mL)
Escherichia coli BL21
  MIC: 16 µM (≈ 47.3 µg/mL)
[2]
  MIC: ≥ 128 µM
[3]
  MIC: 64 µM (≈ 189 µg/mL)

## CC[C@H](C)[C@H](NC(=O)[C@H](CCCCN)NC(=O)[C@H](CCCCN)NC(=O)[C@H](CCCCN)NC(=O)[C@H](CC(C)C)NC(=O)[C@H](Cc1ccccc1)NC(=O)[C@H](CCC(N)=O)NC(=O)[C@H](CCCN=C(N)N)NC(=O)[C@@H](NC(=O)[C@@H](NC(=O)[C@H](CCC(=O)O)NC(=O)[C@H](CCCCN)NC(=O)CNC(=O)[C@H](C)N)[C@@H](C)O)[C@@H](C)CC)C(=O)N[C@@H](CCC(N)=O)C(=O)N[C@@H](CCC(=O)O)C(=O)N[C@@H](CCCCN)C(=O)NCC(=O)N[C@@H](CCCCN)C(=O)N[C@@H](CCCN=C(N)N)C(=O)N[C@@H](C)C(=O)N[C@H](C(=O)N[C@H](C(=O)N[C@@H](C)C(=O)N[C@@H](Cc1c[nH]c2ccccc12)C(=O)O)[C@@H](C)CC)[C@@H](C)O [AGKETIRQFLKKKIQEKGKRATIAW]
Escherichia coli BL21
  MIC: ≥ 32 µM
[2]
  MIC: 8 µM (≈ 23.4 µg/mL)
[3]
  MIC: > 128 µM

## CC[C@H](C)[C@H](NC(=O)[C@H](CO)NC(=O)[C@H](CCC(=O)O)NC(=O)[C@H](CCCN=C(N)N)NC(=O)CNC(=O)[C@H](C)N)C(=O)N[C@@H](CCCCN)C(=O)N[C@@H](C)C(=O)N[C@@H](Cc1ccc(O)cc1)C(=O)N[C@@H](CC(C)C)C(=O)N[C@@H](CCCCN)C(=O)N[C@@H](CCCCN)C(=O)N[C@@H](CCC(=O)O)C(=O)N[C@H](C(=O)N[C@@H](CCCCN)C(=O)N[C@@H](CCCCN)C(=O)N[C@@H](CCCCN)C(=O)N[C@@H](Cc1c[nH]c2ccccc12)C(=O)N[C@@H](CCCCN)C(=O)N[C@@H](CCCN=C(N)N)C(=O)N[C@@H](C)C(=O)N[C@H](C(=O)N[C@H](C(=O)N[C@@H](C)C(=O)N[C@@H](Cc1c[nH]c2ccccc12)C(=O)O)[C@@H](C)CC)C(C)C)[C@@H](C)CC [AGRESIKAYLKKEIKKKWKRAVIAW]
[1]
  MIC: ≥ 128 µM
Escherichia coli BL21
  MIC: 4 µM (≈ 12 µg/mL)
[2]
  MIC: 16 µM (≈ 48 µg/mL)
[3]
  MIC: 16 µM (≈ 48 µg/mL)

## CC[C@H](C)[C@H](NC(=O)[C@H](Cc1ccccc1)NC(=O)[C@H](C)NC(=O)[C@H](CCCCN)NC(=O)[C@H](CCCCN)NC(=O)CNC(=O)[C@H](CCCN=C(N)N)NC(=O)[C@H](CCCCN)NC(=O)[C@H](CCCN=C(N)N)NC(=O)[C@H](CC(C)C)NC(=O)[C@H](CCC(=O)O)NC(=O)[C@H](CCC(=O)O)NC(=O)[C@H](CCCCN)NC(=O)[C@H](CC(C)C)NC(=O)[C@H](Cc1ccc(O)cc1)NC(=O)[C@H](CC(C)C)NC(=O)[C@@H](NC(=O)[C@H](CC(C)C)NC(=O)[C@H](C)NC(=O)[C@H](CCC(N)=O)NC(=O)[C@H](CCCN=C(N)N)NC(=O)CNC(=O)[C@H](C)N)[C@@H](C)O)C(=O)N[C@@H](C)C(=O)N[C@@H](Cc1c[nH]c2ccccc12)C(=O)O [AGRQALTLYLKEELRKRGKKAFIAW]
Escherichia coli BL21
  MIC: ≥ 32 µM
[2]
  MIC: 16 µM (≈ 47.2 µg/mL)
[3]
  MIC: > 128 µM

## CC[C@H](C)[C@H](NC(=O)[C@H](CCCCN)NC(=O)[C@H](CCCCN)NC(=O)[C@H](CC(C)C)NC(=O)[C@@H](NC(=O)[C@H](CCCCN)NC(=O)[C@H](CCCCN)NC(=O)[C@@H](NC(=O)[C@@H](NC(=O)[C@H](CC(=O)O)NC(=O)[C@H](Cc1ccccc1)NC(=O)[C@H](CC(C)C)NC(=O)CN)C(C)C)[C@@H](C)CC)C(C)C)C(=O)NCC(=O)NCC(=O)N[C@@H](CC(C)C)C(N)=O [GLFDVIKKVLKKIGGL]
[4]
  MIC: 6.3 µM (≈ 10.9 µg/mL)
[5]
  MIC: 50 µM (≈ 86.4 µg/mL)
[6]
  MIC: 12.5 µM (≈ 21.6 µg/mL)
[7]
  MIC: 6.3 µM (≈ 10.9 µg/mL)

## CC(C)C[C@H](NC(=O)[C@H](CCCN=C(N)N)NC(=O)[C@@H]1CCCN1C(=O)[C@H](Cc1cnc[nH]1)NC(=O)[C@@H]1CCCN1C(=O)[C@@H]1CCCN1C(=O)[C@H](CCCN=C(N)N)NC(=O)[C@@H]1CCCN1C(=O)[C@H](CCC(N)=O)NC(=O)[C@@H]1CCCN1C(=O)[C@H](CCCN=C(N)N)NC(=O)[C@H](Cc1ccc(O)cc1)NC(=O)[C@@H](NC(=O)[C@@H]1CCCN1C(=O)[C@H](CCCN=C(N)N)NC(=O)[C@H](CC(N)=O)NC(=O)[C@H](CC(N)=O)NC(=O)CN)C(C)C)C(=O)O [GNNRPVYRPQPRPPHPRL]
Escherichia coli JW0013
  MIC: 0.3 µM (≈ 0.645 µg/mL)

## CC(C)C[C@H](NC(=O)[C@H](CC(C)C)NC(=O)[C@H](CCCCN)NC(=O)[C@@H](NC(=O)[C@@H](NC(=O)[C@H](CO)NC(=O)[C@H](CCCCN)NC(=O)[C@H](Cc1ccccc1)NC(=O)[C@@H](NC(=O)[C@@H](N)CCCCN)C(C)C)C(C)C)C(C)C)C(=O)N[C@@H](CCC(=O)O)C(=O)N[C@@H](CCCCN)C(=O)N[C@H](C(=O)N[C@H](C(=O)N[C@@H](CC(C)C)C(=O)N[C@@H](CCCCN)C(=O)N[C@@H](CCCCN)C(=O)N[C@@H](Cc1ccccc1)C(=O)N[C@@H](CO)C(=O)N[C@@H](CCCCN)C(N)=O)C(C)C)[C@@H](C)O [KVFKSVVKLLEKTVLKKFSK]
[8]
  MIC: 64 µM (≈ 150 µg/mL)
[9]
  MIC: ≥ 32 µM
[5]
  MIC: 32 µM (≈ 75.2 µg/mL)
[7]
  MIC: 64 µM (≈ 150 µg/mL)

## CC[C@H](C)[C@H](NC(=O)[C@H](CCCCN)NC(=O)[C@H](CCCCN)NC(=O)[C@@H](N)CC(C)C)C(=O)NCC(=O)N[C@@H](CCCCN)C(=O)N[C@@H](CCCCN)C(=O)N[C@H](C(=O)N[C@@H](Cc1c[nH]c2ccccc12)C(=O)N[C@@H](CCCN=C(N)N)C(=O)N[C@H](C(=O)NCC(=O)N[C@@H](Cc1c[nH]c2ccccc12)C(=O)N[C@@H](CC(N)=O)C(=O)N[C@@H](Cc1c[nH]c2ccccc12)C(=O)N[C@@H](CCCN=C(N)N)C(=O)O)C(C)C)[C@@H](C)CC [LKKIGKKIWRVGWNWR]
[10]
  MIC: 16.1 µM (≈ 33.4 µg/mL)
[11]
  MIC: ≥ 32.3 µM
[12]
  MIC: ≥ 61.9 µM
[13]
  MIC: ≥ 61.9 µM
[14]
  MIC: 61.9 µM (≈ 128 µg/mL)

## CC[C@H](C)[C@H](NC(=O)[C@H](CCCN=C(N)N)NC(=O)[C@H](CCCN=C(N)N)NC(=O)[C@@H]1CCCN1C(=O)[C@@H]1CCCN1C(=O)[C@H](CCCN=C(N)N)NC(=O)[C@@H]1CCCN1C(=O)[C@H](CCCN=C(N)N)NC(=O)[C@@H]1CCCN1C(=O)[C@H](CC(C)C)NC(=O)[C@H](Cc1ccc(O)cc1)NC(=O)[C@@H]1CCCN1C(=O)[C@H](CCSC)NC(=O)[C@H](CCCCN)NC(=O)[C@H](CC(=O)O)NC(=O)[C@@H](N)C(C)C)C(=O)N[C@@H](Cc1ccc(O)cc1)C(=O)N[C@@H](CC(N)=O)C(=O)N[C@@H](CCCN=C(N)N)C(N)=O [VDKMPYLPRPRPPRRIYNR]
Escherichia coli JW0013
  MIC: 1.28 µM (≈ 3.1 µg/mL)
